Source: BindingDB's records for doi:10.1016/j.bmc.2010.03.036 (Chugai Pharmaceutical, 2010)

Experiments:
[1] = Antagonist activity at AR in human LNCAP cells assessed as effect on cell proliferation after 6 days
[2] = Antagonist activity at AR in bicalutamide-resistant human LNCAP cells assessed as effect on cell proliferation after 6 days

Row | SMILES | IC50 [1] | IC50 [2]
1 | CNS(=O)(=O)CCCN1C(=S)N(c2ccc(C#N)c(C(F)(F)F)c2)C(=O)C1(C)C [3-[3-(4-Cyano-3-trifluoromethylphenyl)-5,5-dimethyl-4-oxo-2-thioxoimidazolidin-1-yl]propane-1-sulfonic acidmethylamide] | 190 nM | 30 nM
2 | CN(C)S(=O)(=O)CCCN1C(=S)N(c2ccc(C#N)c(C(F)(F)F)c2)C(=O)C1(C)C [3-[3-(4-Cyano-3-trifluoromethylphenyl)-5,5-dimethyl-4-oxo-2-thioxoimidazolidin-1-yl]propane-1-sulfonic aciddimethylamide] | 3700 nM | 
3 | Cc1cc(N2C(=O)C(C)(C)N(CCCS(N)(=O)=O)C2=S)ccc1C#N [3-[3-(4-Cyano-3-methylphenyl)-5,5-dimethyl-4-oxo-2-thioxoimidazolidin-1-yl]propane-1-sulfonamide] | 300 nM | 51 nM
4 | CC1(C)C(=O)N(c2ccc(C#N)c(Cl)c2)C(=S)N1CCCS(N)(=O)=O [3-[3-(3-Chloro-4-cyanophenyl)-5,5-dimethyl-4-oxo-2-thioxoimidazolidin-1-yl]propane-1-sulfonamide] | 410 nM | 12 nM
5 | CC1(C)C(=O)N(c2ccc(C#N)c(C(F)(F)F)c2)C(=S)N1CCCC(=O)O [4-[3-(4-cyano-3-trifluoromethylphenyl)-5,5-dimethyl-4-oxo-2-thioxoimidazolidin-1-yl]butyric acid] | 2000 nM | 400 nM
6 | Cc1c(N2C(=O)C(C)(C)N(CCCS(N)(=O)=O)C2=S)ccc(C#N)c1C(F)(F)F [3-[3-(4-Cyano-2-methyl-3-trifluoromethylphenyl)-5,5-dimethyl-4-oxo-2-thioxoimidazolidin-1-yl]propane-1-sulfonamide] | 1100 nM | 
7 | CC1(C)C(=O)N(c2ccc(C#N)c(C(F)(F)F)c2)C(=S)N1CCS(N)(=O)=O [2-[3-(4-Cyano-3-trifluoromethylphenyl)-5,5-dimethyl-4-oxo-2-thioxoimidazolidin-1-yl]ethanesulfonamide] |  | 79 nM
8 | CC1(C)C(=O)N(c2ccc(C#N)c(C(F)(F)F)c2)C(=S)N1CCCCS(N)(=O)=O [4-[3-(4-Cyano-3-trifluoromethylphenyl)-5,5-dimethyl-4-oxo-2-thioxoimidazolidin-1-yl]butane-1-sulfonamide] | 1400 nM | 110 nM
9 | CC1(C)C(=O)N(c2ccc(C#N)c(C(F)(F)F)c2)C(=S)N1CCCNS(N)(=O)=O [3-[3-(4-Cyano-3-trifluoromethylphenyl)-5,5-dimethyl-4-oxo-2-thioxoimidazolidin-1-yl]propylsulfamide] | 780 nM | 89 nM
10 | CC1(C)C(=O)N(c2ccc(C#N)c(C(F)(F)F)c2)C(=S)N1CCCS(N)(=O)=O [3-[3-(4-Cyano-3-trifluoromethylphenyl)-5,5-dimethyl-4-oxo-2-thioxoimidazolidin-1-yl]propane-1-sulfonamide] | 160 nM | 18 nM
11 | CC1(C)C(=O)N(c2ccc(C#N)c(C(F)(F)F)c2)C(=S)N1CCCNC(N)=O [3-[3-(4-Cyano-3-trifluoromethylphenyl)-5,5-dimethyl-4-oxo-2-thioxoimidazolidin-1-yl]propylurea] | 1600 nM | 200 nM
12 | CC1(C)C(=O)N(c2ccc(C#N)c(C(F)(F)F)c2)C(=S)N1CCCC(N)=O [4-[3-(4-Cyano-3-trifluoromethylphenyl)-5,5-dimethyl-4-oxo-2-thioxoimidazolidin-1-yl]butyramide] | 400 nM | 55 nM
